Data reported in paper PMC7888557 (International journal of biological macromolecules, 2017).

Molecular target: T1, S-adenosyl-L-homocysteine hydrolase from T. maritima (TmSAHase; iTmSAHase as purified, htTmSAHase after heat treatment) (Thermotoga maritima, UniProt O51933)
T1 sequence (O51933 1-404): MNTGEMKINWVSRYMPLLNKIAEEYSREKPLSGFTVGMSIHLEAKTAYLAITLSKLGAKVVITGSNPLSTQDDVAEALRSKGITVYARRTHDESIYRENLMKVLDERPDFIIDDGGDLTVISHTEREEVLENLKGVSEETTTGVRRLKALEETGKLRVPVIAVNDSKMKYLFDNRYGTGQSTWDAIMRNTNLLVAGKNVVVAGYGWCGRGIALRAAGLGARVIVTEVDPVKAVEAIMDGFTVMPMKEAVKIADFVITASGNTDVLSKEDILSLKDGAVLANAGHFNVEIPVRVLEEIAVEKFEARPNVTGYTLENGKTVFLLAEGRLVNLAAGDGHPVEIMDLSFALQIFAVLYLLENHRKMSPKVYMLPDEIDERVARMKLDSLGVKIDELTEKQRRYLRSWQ
Assay: isothermal titration calorimetry
Format: binding

| Kd (htTmSAHase/AMP) [µM] | Kd (iTmSAHase/AMP) [µM] | SMILES | Kd (htTmSAHase/Ado) [µM] | Kd (iTmSAHase/Ado) [µM] |
| --- | --- | --- | --- | --- |
|  |  | Nc1ncnc2c1ncn2[C@@H]1O[C@H](CO)[C@@H](O)[C@H]1O [Ado, adenosine] | 8.8 ± 1.2 | 19 ± 1.5 |
| 25 ± 2 | 30 ± 3 | Nc1ncnc2c1ncn2[C@@H]1O[C@H](COP(=O)(O)O)[C@@H](O)[C@H]1O [AMP, adenosine 5′-monophosphate] |  |  |
